Measured values: patent US20130210664A1, “Methods for the Identification of Methyltransferase Interacting Molecules and for the Purification of Methyltransferase Proteins” (Cellzome AG, priority 2010, published 2013)

Legend:
Test in all cases: Competition binding bead assay with immobilized compound 6 in cell lysate, iTRAQ LC-MS/MS quantitation
[1] = test system: DPH5; parameters: species or system human; conditions: 200 μM free compound 6, mixed Jurkat and Ramos cell lysates, versus DMSO solvent control
Description: (§1) To the first aliquot of cell lysate 200 μM of the free compound 6 was added and allowed to bind to proteins in the lysate. Then the affinity matrix with the immobilized compound (Example 1) was added to capture proteins that were not interacting with the previously added free compound. Beads were separated from the lysate and bead bound proteins were eluted in SDS sample buffer and subsequently separated by SDS-Polyacrylamide gel electrophoresis. Suitable gel bands were cut out and subjected to in-gel proteolytic digestion with trypsin. The second lysate aliquot was processed identically, however no free compound was added (DMSO solvent control). Peptides originating from samples 1 and 2 were labeled with iTRAQ reagents (iTRAQ 114 and iTRAQ 116) and the combined samples were analyzed with a nano-flow liquid chromatography system coupled online to a tandem mass spectrometer (LC-MS/MS) experiment followed by iTRAQ reporter ion quantification in the MS/MS spectra (Ross et al., 2004. Mol. Cell. Proteomics 3(12):1154-1169). Further experimental protocols can be found in WO2006/134056 and a previous publication (Bantscheff et al., 2007. Nature Biotechnology 25, 1035-1044).
(§2) The identified methyltransferases are shown in Table 5 including the percent competition values for the sample to which 200 μM free compound had been added. […]

[2] = target: T1, SETD7 (Homo sapiens, UniProt Q8WTS6); conditions: SETD7 (IPI00028366.2); 200 μM free compound 6; mixed Jurkat and Ramos cell lysates; versus DMSO solvent control
T1 construct: endogenous in cells; host or cells: Jurkat (ATCC TIB-152) and Ramos (ATCC CRL-1596) cells, mixed lysate
T1 sequence (Q8WTS6 1-366): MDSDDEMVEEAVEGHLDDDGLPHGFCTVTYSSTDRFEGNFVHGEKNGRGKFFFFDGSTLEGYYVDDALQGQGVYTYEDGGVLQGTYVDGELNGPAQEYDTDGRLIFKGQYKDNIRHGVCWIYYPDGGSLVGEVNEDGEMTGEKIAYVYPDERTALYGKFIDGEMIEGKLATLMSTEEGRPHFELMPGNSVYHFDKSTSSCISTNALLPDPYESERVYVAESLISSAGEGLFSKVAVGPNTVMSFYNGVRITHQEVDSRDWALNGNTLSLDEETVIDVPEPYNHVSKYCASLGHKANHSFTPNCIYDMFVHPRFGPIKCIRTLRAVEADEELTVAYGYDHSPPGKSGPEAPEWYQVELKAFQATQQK
Description: as §1, §2

[3] = target: T2, SMYD5 (Homo sapiens, UniProt Q6GMV2); conditions: SMYD5 (IPI00013789.5); 200 μM free compound 6; mixed Jurkat and Ramos cell lysates; versus DMSO solvent control
T2 construct: endogenous in cells; host or cells: Jurkat (ATCC TIB-152) and Ramos (ATCC CRL-1596) cells, mixed lysate
T2 sequence (Q6GMV2 1-418): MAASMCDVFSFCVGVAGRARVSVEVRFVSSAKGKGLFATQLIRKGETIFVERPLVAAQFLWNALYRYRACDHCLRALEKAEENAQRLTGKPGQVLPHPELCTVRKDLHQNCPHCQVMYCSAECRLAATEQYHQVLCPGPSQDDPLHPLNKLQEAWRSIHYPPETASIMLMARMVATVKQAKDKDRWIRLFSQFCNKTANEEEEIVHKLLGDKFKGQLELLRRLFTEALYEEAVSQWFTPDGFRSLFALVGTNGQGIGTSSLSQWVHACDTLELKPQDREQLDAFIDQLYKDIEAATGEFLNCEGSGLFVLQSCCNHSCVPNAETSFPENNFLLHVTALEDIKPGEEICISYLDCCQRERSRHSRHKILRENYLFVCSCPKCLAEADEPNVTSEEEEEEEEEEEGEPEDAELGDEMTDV
Description: as §1, §2

NCCCNc1nc(N)c2ncn([C@@H]3O[C@H](CSCC[C@H](N)C(=O)O)[C@@H](O)[C@H]3O)c2n1 [Compound 6, (S)-2-amino-4-((((2S,3S,4R,5R)-5-(6-amino-2-((3-aminopropyl)amino)-9H-purin-9-yl)-3,4-dihydroxytetrahydrofuran-2-yl)methyl)thio)butanoic acid]
% Competition [1]: 50.0%
% Competition [2]: 94.1%
% Competition [3]: 95.9%
